# Assay results published in paper PMC12281424, “A Rac-specific competitive inhibitor of guanine nucleotide binding reduces metastasis in triple-negative breast cancer” (Cell Reports Medicine, 2025).
# How the values were obtained:
# DDR1(h) = DDR1(h) (Homo sapiens, UniProt Q08345); assay: Kinase Profiler; assay type: biochemical
# Experimental: (§1) Blood cell counts, kinase profiler, safety screen, bacterial cytotoxicity, Ames, micronucleus assays were performed by the company Eurofins (France). The kinase profiler was performed by the company Eurofins (Discovery, Panlab and Cerep).
# LIMK2(h) = LIMK2(h) (Homo sapiens, UniProt P53671); assay: Kinase Profiler; assay type: biochemical
# Experimental: (§2) The kinase profiler was performed by the company Eurofins (Discovery, Panlab and Cerep).
# RAC1 G30S = molecular target: T1, RAC1 G30S (Homo sapiens, UniProt P63000, G30S); assay: GEF-stimulated nucleotide exchange; assay type: biochemical; parameters: dose or concentration left out as unconfirmed
# T1 construct: Full-length RAC1G30S was obtained by directed mutagenesis on the pET-3a-RAC1HisCter plasmid; 6xHis (C); made in house
# Text: Figure 4 A41 selectively impairs RAC protein activation (A) Representative surface plasmon resonance (SPR) sensograms of binding of immobilized RHOA or CDC42 with indicated increasing concentrations of A41 (N > 3). (B) Effect of A41 on GEF-stimulated RAC2, RHOG, RHOA, and CDC42 nucleotide exchange. […] Kobs is expressed as mean ± SEM. ∗p < 0.001 vs. control. (C) Effect of A41 on RAC1 G30S activation. […] Data are expressed as mean ± SEM. (D) Immunoblot analysis and associated quantification of RAC-GTP level and total RAC expression in NIH-3T3 fibroblasts expressing RAC wild-type (RAC1 WT) or RAC1 oncomutants (RAC1 P29S and RAC1b) in the absence (Ctrl) and presence of A41 (10 μM). RAC activation was measured as the ratio of RAC-GTP to total RAC and expressed relative to Ctrl condition. Data are presented as mean ± SEM. ∗∗∗p < 0.001 vs. controls.
# Full-length RAC1 carrying a 6xHis tag in C-terminus was purified as previously described.[64] […] Specific exchange activity toward RHOA determined by fluorescence kinetics is 0.04 s^−1M^−1.
# Nucleotide exchange kinetics were measured by recording the increase in fluorescence following the association of mant-GTP on GDP-bound RHO protein or the decay in fluorescence following the dissociation of mant-GDP pre-loaded onto the RHO protein (λEx = 360 nm, λEm = 440 nm) as previously described.[39] […]
# MAPK2(h) = MAPK2(h) (Homo sapiens, UniProt P28482); assay: Kinase Profiler; assay type: biochemical
# Experimental: as §2
# LOK(h) = LOK(h) (Homo sapiens, UniProt O94804); assay: Kinase Profiler; assay type: biochemical
# Sequence of LOK(h) (O94804 whole entry): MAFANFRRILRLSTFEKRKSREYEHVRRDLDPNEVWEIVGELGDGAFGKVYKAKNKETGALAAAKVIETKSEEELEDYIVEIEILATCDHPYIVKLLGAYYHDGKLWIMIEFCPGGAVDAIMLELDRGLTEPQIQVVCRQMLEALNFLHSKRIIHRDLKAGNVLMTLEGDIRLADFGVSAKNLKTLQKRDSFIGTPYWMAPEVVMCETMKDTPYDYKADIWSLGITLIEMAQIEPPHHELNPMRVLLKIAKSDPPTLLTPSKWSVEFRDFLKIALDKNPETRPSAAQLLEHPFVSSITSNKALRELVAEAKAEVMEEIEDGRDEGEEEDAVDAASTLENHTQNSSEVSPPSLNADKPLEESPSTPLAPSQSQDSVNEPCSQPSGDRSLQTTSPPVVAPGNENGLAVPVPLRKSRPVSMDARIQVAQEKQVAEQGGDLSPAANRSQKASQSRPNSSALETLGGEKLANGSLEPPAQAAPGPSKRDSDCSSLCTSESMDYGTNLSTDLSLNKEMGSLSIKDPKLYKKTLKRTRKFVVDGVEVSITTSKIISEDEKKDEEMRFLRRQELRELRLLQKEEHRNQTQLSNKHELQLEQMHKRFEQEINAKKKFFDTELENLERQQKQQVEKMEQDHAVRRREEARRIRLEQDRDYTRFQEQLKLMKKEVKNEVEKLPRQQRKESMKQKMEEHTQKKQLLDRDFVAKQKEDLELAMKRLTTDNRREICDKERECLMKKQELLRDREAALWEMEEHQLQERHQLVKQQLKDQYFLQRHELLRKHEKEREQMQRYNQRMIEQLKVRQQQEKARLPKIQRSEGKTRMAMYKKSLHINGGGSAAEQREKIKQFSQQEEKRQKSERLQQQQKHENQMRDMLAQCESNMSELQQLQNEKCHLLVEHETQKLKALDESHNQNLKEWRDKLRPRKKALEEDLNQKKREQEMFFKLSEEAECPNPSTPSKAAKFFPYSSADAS
# Experimental: as §2
# IR(h), activated = IR(h), activated (Homo sapiens, UniProt P06213); assay: Kinase Profiler; assay type: biochemical
# Sequence of IR(h), activated (P06213 28-1382): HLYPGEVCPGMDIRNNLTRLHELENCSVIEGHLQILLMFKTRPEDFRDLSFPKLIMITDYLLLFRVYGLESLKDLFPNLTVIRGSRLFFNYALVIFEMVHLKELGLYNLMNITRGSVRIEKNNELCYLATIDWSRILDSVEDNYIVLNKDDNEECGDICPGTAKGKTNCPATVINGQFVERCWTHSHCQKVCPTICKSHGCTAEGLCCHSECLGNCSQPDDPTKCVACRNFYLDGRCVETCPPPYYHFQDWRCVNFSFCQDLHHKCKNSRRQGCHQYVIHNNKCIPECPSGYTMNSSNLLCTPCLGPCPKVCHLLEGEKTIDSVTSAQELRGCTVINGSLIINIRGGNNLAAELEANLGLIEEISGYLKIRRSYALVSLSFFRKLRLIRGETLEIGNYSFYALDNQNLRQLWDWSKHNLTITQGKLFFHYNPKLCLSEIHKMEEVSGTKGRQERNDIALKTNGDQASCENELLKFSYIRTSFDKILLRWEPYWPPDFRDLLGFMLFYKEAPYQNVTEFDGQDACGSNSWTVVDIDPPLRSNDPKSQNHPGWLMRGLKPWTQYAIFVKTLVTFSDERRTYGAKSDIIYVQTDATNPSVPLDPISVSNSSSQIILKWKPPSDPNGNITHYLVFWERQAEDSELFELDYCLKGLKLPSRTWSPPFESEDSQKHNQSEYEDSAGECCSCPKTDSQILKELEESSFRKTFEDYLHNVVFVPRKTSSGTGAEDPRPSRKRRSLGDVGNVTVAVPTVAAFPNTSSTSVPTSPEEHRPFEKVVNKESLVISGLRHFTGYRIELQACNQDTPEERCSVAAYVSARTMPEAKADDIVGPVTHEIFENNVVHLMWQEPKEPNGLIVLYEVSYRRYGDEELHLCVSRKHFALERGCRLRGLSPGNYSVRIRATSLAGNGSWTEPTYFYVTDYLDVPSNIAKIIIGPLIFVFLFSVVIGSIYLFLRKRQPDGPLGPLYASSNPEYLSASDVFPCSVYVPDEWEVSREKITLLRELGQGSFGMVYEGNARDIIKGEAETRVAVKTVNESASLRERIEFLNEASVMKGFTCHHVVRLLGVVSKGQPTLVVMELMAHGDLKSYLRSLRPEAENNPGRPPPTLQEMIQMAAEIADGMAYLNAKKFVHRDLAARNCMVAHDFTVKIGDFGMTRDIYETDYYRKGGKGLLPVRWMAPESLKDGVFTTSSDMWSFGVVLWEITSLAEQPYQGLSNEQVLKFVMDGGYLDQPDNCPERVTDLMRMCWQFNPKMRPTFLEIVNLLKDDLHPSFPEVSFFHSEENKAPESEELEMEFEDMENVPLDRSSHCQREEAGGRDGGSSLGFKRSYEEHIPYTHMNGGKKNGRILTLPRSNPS
# Experimental: as §1
# IR(h) = IR(h) (Homo sapiens, UniProt P06213); assay: Kinase Profiler; assay type: biochemical
# Sequence of IR(h) (P06213 28-1382): as above
# Experimental: as §1
# MST1(h) = MST1(h) (Homo sapiens, UniProt Q13043); assay: Kinase Profiler; assay type: biochemical
# Sequence of MST1(h) (Q13043 whole entry): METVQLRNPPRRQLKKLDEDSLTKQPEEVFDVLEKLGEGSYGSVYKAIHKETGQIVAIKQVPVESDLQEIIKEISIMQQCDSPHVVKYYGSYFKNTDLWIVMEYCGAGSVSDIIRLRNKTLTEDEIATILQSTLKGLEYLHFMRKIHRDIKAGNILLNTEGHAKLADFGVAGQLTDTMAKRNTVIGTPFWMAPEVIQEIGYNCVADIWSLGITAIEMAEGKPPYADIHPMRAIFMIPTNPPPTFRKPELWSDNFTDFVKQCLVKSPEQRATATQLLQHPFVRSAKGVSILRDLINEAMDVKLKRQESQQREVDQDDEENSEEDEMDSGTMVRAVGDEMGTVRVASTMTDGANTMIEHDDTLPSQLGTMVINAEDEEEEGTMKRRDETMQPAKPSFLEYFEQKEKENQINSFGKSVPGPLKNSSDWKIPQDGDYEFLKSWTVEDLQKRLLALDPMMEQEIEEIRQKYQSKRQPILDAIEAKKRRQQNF
# Experimental: as §1
# [1] = molecular target: PI3K (p110a(E545K)/p85a)(h) (Homo sapiens, UniProt P42336, E545K); assay: Kinase Profiler; assay type: biochemical
# Sequence of PI3K (p110a(E545K)/p85a)(h) (P42336 whole entry E545K): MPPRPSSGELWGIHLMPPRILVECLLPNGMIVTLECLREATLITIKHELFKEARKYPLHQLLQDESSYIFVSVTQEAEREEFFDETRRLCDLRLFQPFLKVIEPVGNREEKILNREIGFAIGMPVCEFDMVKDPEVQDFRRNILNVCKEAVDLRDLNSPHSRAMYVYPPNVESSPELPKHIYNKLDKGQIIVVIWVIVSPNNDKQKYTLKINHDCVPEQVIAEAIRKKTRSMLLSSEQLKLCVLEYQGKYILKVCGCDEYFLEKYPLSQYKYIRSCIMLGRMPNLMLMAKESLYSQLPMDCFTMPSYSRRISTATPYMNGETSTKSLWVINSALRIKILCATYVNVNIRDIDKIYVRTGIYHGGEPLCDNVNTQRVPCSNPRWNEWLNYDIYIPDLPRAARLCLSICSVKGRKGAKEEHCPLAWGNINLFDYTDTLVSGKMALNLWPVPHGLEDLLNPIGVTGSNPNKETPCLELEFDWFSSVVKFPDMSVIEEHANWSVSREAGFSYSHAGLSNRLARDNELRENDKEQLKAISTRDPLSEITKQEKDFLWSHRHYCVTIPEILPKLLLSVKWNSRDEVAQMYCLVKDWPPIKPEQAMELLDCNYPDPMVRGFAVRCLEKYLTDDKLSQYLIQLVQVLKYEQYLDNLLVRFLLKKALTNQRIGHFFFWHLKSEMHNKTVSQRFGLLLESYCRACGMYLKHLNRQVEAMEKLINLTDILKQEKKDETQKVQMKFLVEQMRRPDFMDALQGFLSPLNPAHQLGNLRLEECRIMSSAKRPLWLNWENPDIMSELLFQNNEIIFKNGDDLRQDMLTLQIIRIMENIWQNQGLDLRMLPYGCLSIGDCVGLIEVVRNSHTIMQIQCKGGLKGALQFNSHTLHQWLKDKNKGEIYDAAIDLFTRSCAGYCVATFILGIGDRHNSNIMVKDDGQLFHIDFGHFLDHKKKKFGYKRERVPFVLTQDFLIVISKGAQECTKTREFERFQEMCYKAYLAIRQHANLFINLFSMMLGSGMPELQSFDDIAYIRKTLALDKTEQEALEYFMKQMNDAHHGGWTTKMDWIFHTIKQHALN
# Sequence of PI3K (p110a(E545K)/p85a)(h) (P27986 whole entry partner): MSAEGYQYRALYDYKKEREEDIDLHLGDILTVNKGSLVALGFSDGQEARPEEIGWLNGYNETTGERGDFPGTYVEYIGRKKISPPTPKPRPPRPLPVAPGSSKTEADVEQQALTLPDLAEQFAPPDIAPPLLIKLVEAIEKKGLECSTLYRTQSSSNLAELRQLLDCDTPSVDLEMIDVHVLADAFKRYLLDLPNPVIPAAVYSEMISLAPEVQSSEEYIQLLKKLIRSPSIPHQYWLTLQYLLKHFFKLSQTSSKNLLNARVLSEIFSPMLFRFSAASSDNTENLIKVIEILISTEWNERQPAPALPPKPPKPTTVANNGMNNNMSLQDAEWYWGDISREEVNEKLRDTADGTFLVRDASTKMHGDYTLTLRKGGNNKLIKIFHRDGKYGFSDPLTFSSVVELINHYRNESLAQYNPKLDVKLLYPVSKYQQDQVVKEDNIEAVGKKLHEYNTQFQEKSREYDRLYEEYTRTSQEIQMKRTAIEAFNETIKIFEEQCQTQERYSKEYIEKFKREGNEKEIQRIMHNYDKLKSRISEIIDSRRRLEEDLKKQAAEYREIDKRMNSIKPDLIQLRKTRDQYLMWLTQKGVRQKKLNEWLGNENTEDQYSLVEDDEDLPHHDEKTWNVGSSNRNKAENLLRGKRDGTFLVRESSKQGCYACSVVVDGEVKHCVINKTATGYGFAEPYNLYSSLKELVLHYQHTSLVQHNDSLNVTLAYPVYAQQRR
# Experimental: as §2
# RHOA = RHOA (Homo sapiens, UniProt P61586); assay: Surface plasmon resonance; assay type: binding; parameters: purchased Cytoskeleton RC01; settings: A41 0 to 25 μM
# Experimental: SPR immobilization was performed at 25°C. RAC1, RHOA and CDC42 purified proteins (respectively […] and CD01, Cytoskeleton) were diluted to 5 μg/mL in Na^+ acetate buffer (pH 5.0) and injected into sensor chip CM5 (GE Healthcare) in a Biacore T200 (GE Healthcare) that was activated with NHS/EDC buffer. Approximately 5,000 response units of the purified protein were immobilized on the biosensor chip. Biosensor chips were blocked by an injection of 1 mM ethanolamine (pH 8.5). SPR analysis was performed at 25°C in HBSEP running buffer (5% DMSO) with or without EDTA (20 mM). A41 compound was injected over the RAC1, RHOA or CDC42 functionalized surface in concentration range from 0 to 25μM. Association and dissociation phases were monitored during 60s and 300s, respectively.
# [2] = system: Glycine, Strychnine-Sensitive; assay: Safety screen; assay type: binding, rat
# MST4(h) = MST4(h) (Homo sapiens, UniProt Q9P289); assay: Kinase Profiler; assay type: biochemical
# Sequence of MST4(h) (Q9P289 whole entry): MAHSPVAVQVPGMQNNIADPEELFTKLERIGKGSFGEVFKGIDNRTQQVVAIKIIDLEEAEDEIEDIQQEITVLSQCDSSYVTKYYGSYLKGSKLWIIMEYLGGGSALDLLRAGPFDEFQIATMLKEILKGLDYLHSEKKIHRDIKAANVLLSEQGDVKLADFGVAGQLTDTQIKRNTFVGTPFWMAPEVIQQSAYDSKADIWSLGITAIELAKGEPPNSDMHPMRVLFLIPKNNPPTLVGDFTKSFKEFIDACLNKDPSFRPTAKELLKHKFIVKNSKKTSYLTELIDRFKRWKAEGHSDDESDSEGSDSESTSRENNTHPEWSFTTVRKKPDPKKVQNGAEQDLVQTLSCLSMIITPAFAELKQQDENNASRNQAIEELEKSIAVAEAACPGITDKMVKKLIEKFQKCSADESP
# Experimental: as §2
compound,measurement,setting,value
COc1ccc(OC)c(NS(=O)(=O)c2ccc(NC(=O)CCSc3ccc(C)cc3)cc2)c1 [Compound A41],Activity(%),DDR1(h),116%
same,Activity(%),LIMK2(h),115%
same,TRIO-induced nucleotide exchange on RAC1 G30S,RAC1 G30S,not able to inhibit
same,Activity(%),MAPK2(h),103%
same,Activity(%),LOK(h),112%
same,Activity(%),"IR(h), activated",104%
same,Activity(%),IR(h),137%
same,Activity(%),MST1(h),96%
same,Activity(%),[1],105%
same,binding,RHOA,No binding was measured
same,% inh.,[2],-1%
same,Activity(%),MST4(h),101%
